{"source": "paper PMC4368859", "about": "(International Journal of Neuropsychopharmacology, 2014)", "key": {"OCTs": {"system": "OCTs", "experiment": "MPP+ transport in hCMEC/D3 cells", "format": "cell-based, human", "conditions": "TEA 2mM, data not shown"}, "[1]": {"system": "[^3H]-cocaine uptake in hCMEC/D3 cells", "format": "cell-based, human"}, "[2]": {"system": "cocaine transporter in hCMEC/D3 cells", "experiment": "trans-stimulation of [^3H]-cocaine exit from hCMEC/D3 cells", "conditions": "10 µM unlabeled compound in KH buffer after 5 minutes loading; vs control"}, "[3]": {"conditions": "ref Gatley et al., 1994; Chow et al., 2001; cited from earlier work"}, "[4]": {"conditions": "in water; ref Lu et al., 2007; cited from earlier work"}, "hCMEC/D3 cells": {"system": "hCMEC/D3 cells", "experiment": "cocaine uptake in hCMEC/D3 cells", "format": "in vitro ADME, human"}, "mouse luminal BBB": {"system": "mouse luminal BBB", "experiment": "cocaine brain transport by in situ mouse carotid perfusion", "format": "in vivo", "conditions": "for Brain transport (K in): 9nM; for decrease in [^3H]-cocaine transport by unlabeled cocaine: unlabeled cocaine 10mM, mouse BBB"}, "[5]": {"experiment": "pKa and ionised/neutral fraction of the drug as a function of pH", "format": "physicochemical"}, "[6]": {"conditions": "in vivo, concentrations less than K m"}}, "note": "Values joined by “and” are separate entries in the source; they are usually repeats but may differ in a detail not shown here. Identical values can stand only once."}
{"compound": "CC[N+](CC)(CC)CC", "note": "[TEA, tetraethylammonium]", "values": [{"measurement": "effect on MPP^+ transport", "setting": "OCTs", "result": "significantly inhibited"}, {"measurement": "Relative uptake of [^3H]-cocaine", "setting": "[1]", "result": "120.6±9.8", "unit": "%"}]}
{"compound": "CN1[C@H]2CC[C@@H]1[C@@H](C(=O)O)[C@@H](OC(=O)c1ccccc1)C2", "note": "[Benzoylecgonine]", "values": [{"measurement": "trans-stimulation of [^3H]-cocaine exit (trans-efflux zero)", "setting": "[2]", "result": "lack of a trans-stimulation effect"}, {"measurement": "Relative uptake of [^3H]-cocaine", "setting": "[1]", "result": "104.1±3.0% and 94.2±14.9% and 72.0±11.4 %"}, {"measurement": "brain uptake", "setting": "[3]", "result": "no significant brain uptake"}]}
{"compound": "CCCC(C(=O)c1ccc2c(c1)OCO2)N1CCCC1", "note": "(stereo not drawn) [MDPV, 3,4-methylenedioxypyrovalerone]", "values": [{"measurement": "trans-stimulation of [^3H]-cocaine exit (trans-efflux zero)", "setting": "[2]", "result": "strongly stimulated"}, {"measurement": "Relative uptake of [^3H]-cocaine", "setting": "[1]", "result": "18.1±0.4", "unit": "%"}]}
{"compound": "COC(=O)[C@H]1[C@@H](OC(=O)c2ccccc2)C[C@@H]2CC[C@H]1N2C", "note": "[cocaine, (−)-Cocaine]", "values": [{"measurement": "basic pK a", "setting": "[4]", "result": 8.6}, {"measurement": "K m of carrier-mediated uptake", "setting": "hCMEC/D3 cells; KH buffer pH 7.40, 37°C, 5 minutes, 0.05–10mM", "result": "0.123 ± 0.023", "unit": "mM"}, {"measurement": "increase in uptake after NH4Cl prepulse (acidification)", "setting": "hCMEC/D3 cells; NH4Cl 30mM prepulse", "result": 1.85, "unit": "fold"}, {"measurement": "effect of NH4Cl pulse (alkalinization) on uptake", "setting": "hCMEC/D3 cells; NH4Cl 30mM, pHe 7.40", "result": "significantly decreased"}, {"measurement": "K passive (passive diffusion)", "setting": "hCMEC/D3 cells; pH 7.40", "result": "1.09 ± 0.09", "unit": "µL/min/mg"}, {"measurement": "increase in uptake vs pHe 5.40", "setting": "hCMEC/D3 cells; pHe 6.40", "result": 2.5, "unit": "fold"}, {"measurement": "increase in uptake vs pHe 5.40", "setting": "hCMEC/D3 cells; pHe 7.40", "result": 4.6, "unit": "fold"}, {"measurement": "transport in NMDG-buffer relative to KH buffer control", "setting": "hCMEC/D3 cells; sodium replaced, pHe 7.40, 5 minutes, control 100.0±9.0%", "result": "97.0±9.7", "unit": "%"}, {"measurement": "Brain transport (K in)", "setting": "mouse luminal BBB; C57Bl/6 mice, 60 seconds, Krebs-carbonate pH 7.40", "result": "19 ± 2", "unit": "µL/s/g"}, {"measurement": "Brain transport (K in)", "setting": "mouse luminal BBB; DBA mice, 60 seconds, Krebs-carbonate pH 7.40", "result": "21 ± 2", "unit": "µL/s/g"}, {"measurement": "Brain transport (K in)", "setting": "mouse luminal BBB; Fvb [Oct1,Oct2(−/−)] mice, 60 seconds", "result": "19 ± 2", "unit": "µL/s/g"}, {"measurement": "Brain transport (K in)", "setting": "mouse luminal BBB; Fvb wild-type mice, 60 seconds, Krebs-carbonate pH 7.40", "result": "20 ± 2", "unit": "µL/s/g"}, {"measurement": "Brain transport (K in)", "setting": "mouse luminal BBB; Swiss mice, 60 seconds, Krebs-carbonate pH 7.40", "result": "20 ± 2", "unit": "µL/s/g"}, {"measurement": "K passive (passive diffusion)", "setting": "mouse luminal BBB; Swiss mice, pHe 7.40", "result": "4.5±1.0 µL/sec/g and ~ 4.5 µL/sec/g"}, {"measurement": "apparent K m of carrier-mediated brain flux", "setting": "mouse luminal BBB; Swiss mice, pHe 7.40", "result": "4.5 ± 1.8", "unit": "mM"}, {"measurement": "V max of carrier-mediated brain flux", "setting": "mouse luminal BBB; Swiss mice, pHe 7.40, per g of brain", "result": "127.2 ± 34.5", "unit": "nmol/s/g"}, {"measurement": "total brain extraction", "setting": "mouse luminal BBB; compared with the vascular flow marker diazepam", "result": "about 47%"}, {"measurement": "concentration at which passive diffusion and carrier-mediated flux are equal", "setting": "mouse luminal BBB; from Equation 7", "result": "around 24 mM"}, {"measurement": "carrier-mediated influx relative to passive diffusion", "setting": "mouse luminal BBB; [6]", "result": 3.4, "unit": "times"}, {"measurement": "carrier-mediated transport rate", "setting": "mouse luminal BBB; [6]", "result": "~ 15.5 µL/sec/g"}, {"measurement": "increase in brain transport vs pHe 5.40", "setting": "mouse luminal BBB; mice, 60 seconds, pHe 6.40", "result": 4.7, "unit": "fold"}, {"measurement": "increase in brain transport vs pHe 5.40", "setting": "mouse luminal BBB; mice, 60 seconds, pHe 7.40", "result": 16.9, "unit": "fold"}, {"measurement": "reduction in brain transport by NH4Cl pulse", "setting": "mouse luminal BBB; mice, NH4Cl 30mM, pHe 7.40, 60 seconds", "result": 1.8, "unit": "fold"}, {"measurement": "decrease in brain transport with HEPES-buffer vs Krebs-carbonate buffer", "setting": "mouse luminal BBB; mice, carbonate-free HEPES buffer", "result": 1.8, "unit": "fold"}, {"measurement": "increase in K in with mannitol perfusion buffer vs Krebs-carbonate", "setting": "mouse luminal BBB; mice, sodium-free and chloride-free buffer", "result": 1.35, "unit": "fold"}, {"measurement": "effect of lithium (Na+-free) buffer on brain transport", "setting": "mouse luminal BBB; mice, vs regular Krebs-carbonate buffer", "result": "no significant change"}, {"measurement": "net brain transport rate (K in) under unsaturated conditions", "setting": "mouse luminal BBB; pharmacological concentration range", "result": "about 20 µL/sec/g"}, {"measurement": "decrease in [^3H]-cocaine transport by unlabeled cocaine", "setting": "mouse luminal BBB; pHe 5.40", "result": 1.8, "unit": "fold"}, {"measurement": "decrease in [^3H]-cocaine transport by unlabeled cocaine", "setting": "mouse luminal BBB; pHe 6.40", "result": 2.0, "unit": "fold"}, {"measurement": "decrease in [^3H]-cocaine transport by unlabeled cocaine", "setting": "mouse luminal BBB; pHe 7.40", "result": 1.9, "unit": "fold"}, {"measurement": "positively charged fraction", "setting": "[5]; pH 7.4", "result": 94, "unit": "%"}, {"measurement": "uncharged fraction", "setting": "[5]; pH 7.4", "result": 6, "unit": "%"}, {"measurement": "neutral fraction", "setting": "[5]; pHe 5.40", "result": 0.06, "unit": "%"}, {"measurement": "cationic form", "setting": "[5]; pHe 5.40 or 6.40", "result": "> 99.4", "unit": "%"}, {"measurement": "neutral fraction", "setting": "[5]; pHe 6.40", "result": 0.6, "unit": "%"}, {"measurement": "neutral fraction", "setting": "[5]; pHe 7.40", "result": 5.9, "unit": "%"}]}
{"compound": "Ecgonine", "values": [{"measurement": "Relative uptake of [^3H]-cocaine", "setting": "[1]", "result": "103.9±8.7% and 93.2±2.5% and 75.3±5.0 %"}]}
{"compound": "COc1ccc2c3c1O[C@H]1[C@@H](O)C=C[C@H]4[C@@H](C2)N(C)CC[C@@]341", "note": "[Codeine]", "values": [{"measurement": "Relative uptake of [^3H]-cocaine", "setting": "[1]", "result": "63.4±5.0", "unit": "%"}]}
{"compound": "C=CCN1CC[C@]23c4c5ccc(O)c4O[C@H]2C(=O)CC[C@@]3(O)[C@H]1C5", "note": "[Naloxone]", "values": [{"measurement": "Relative uptake of [^3H]-cocaine", "setting": "[1]", "result": "28.3±0.9", "unit": "%"}]}
{"compound": "COc1ccc(CCN(C)CCCC(C#N)(c2ccc(OC)c(OC)c2)C(C)C)cc1OC", "note": "(stereo not drawn) [Verapamil]", "values": [{"measurement": "Relative uptake of [^3H]-cocaine", "setting": "[1]", "result": "3.7±0.2", "unit": "%"}]}
{"compound": "CN1CCC[C@H]1c1cccnc1", "note": "[Nicotine]", "values": [{"measurement": "trans-stimulation of [^3H]-cocaine exit (trans-efflux zero)", "setting": "[2]", "result": "strongly stimulated"}]}
